Experimental data as given in PubChem BioAssay (NCI).
Several values for one entry are separate records, joined by “and”; a condition that tells them apart may be missing. Identical values can stand only once.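 Protocol summary: plate cells (96-well), add compound at 5 concentrations, incubate 48 h, interpolate endpoints linearly. GI50 = concentration required for 50% inhibition of growth. TGI: total growth inhibition.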

Assays:
Test in all cases: NCI anticancer screen, dose series, 48 h
[1] = system: SR leukemia
[2] = system: DMS 114 small cell lung
[3] = system: RXF 393 renal
[4] = system: HCC-2998 colon
[5] = system: NCI-H23 lung
[6] = system: SN12C renal
[7] = system: NCI-H522 lung
[8] = system: OVCAR-3 ovarian
[9] = system: HOP-62 NSCLC
[10] = system: XF 498 CNS

Row | SMILES | TGI [1] | TGI [2] | TGI [3] | TGI [4] | TGI [5] | TGI [6] | TGI [7] | TGI [8] | TGI [9] | TGI [10] | GI50 [1] | GI50 [3] | GI50 [4] | GI50 [5] | GI50 [6] | GI50 [7] | GI50 [8] | GI50 [9]
1 | COc1ccc(-c2cc(C(=O)Nc3cccc(C(F)(F)F)c3)[nH]c(=S)n2)cc1 | > 100 µM | > 100 µM | > 100 µM | > 100 µM | > 100 µM | > 100 µM | > 100 µM | > 100 µM | > 100 µM | > 100 µM | – | – | – | – | – | – | – | –
2 | O=[N+]([O-])c1ccccc1S(=O)c1ccccc1 (stereo not drawn) | > 100 µM | 51.8 µM | > 100 µM | > 100 µM | > 100 µM | > 100 µM | > 100 µM | > 100 µM | > 100 µM | > 100 µM | – | – | – | – | – | – | – | –
3 | O=C(Cc1ccccc1)Oc1ccc2c(-c3ccccc3)c(C(=O)Nc3ccc(Cl)cc3)c(=O)oc2c1 | > 100 µM | > 100 µM | > 100 µM | > 100 µM | > 100 µM | > 100 µM | > 100 µM | > 100 µM | > 100 µM | > 100 µM | – | – | – | – | – | – | – | –
4 | COc1cc2c(cc1OC)C1c3ccccc3C(C#N)(C2)N(C(=O)c2ccccc2)C1O (stereo not drawn) | > 100 µM | > 100 µM | > 100 µM | > 100 µM | > 100 µM | > 100 µM | 56.4 µM | > 100 µM | > 100 µM | 95.9 µM | – | – | – | – | – | – | – | –
5 | COc1ccc(OC)c(/C=C/[N+](=O)[O-])c1 | 1.85 µM and 3.92 µM | 11.9 µM | 3.59 µM and 3.54 µM | 10.4 µM and 7.54 µM | 13.6 µM and 8.12 µM | 7.19 µM and 7.69 µM | 2.96 µM and 4.78 µM | 4.9 µM and 3.31 µM | 8.27 µM and 9.56 µM | 7.02 µM | 0.467 µM and 0.865 µM | 1.8 µM | 4.24 µM and 4.38 µM | – | – | – | – | –
6 | CCCCOC1CC2(c3ccc(OC)cc3)C(=O)c3ccccc3N2O1 (stereo not drawn) | – | 99.5 µM | 50 µM | – | – | > 10 µM | 81.2 µM | > 100 µM | – | > 10 µM | – | – | – | – | – | – | – | –
7 | O=C1CCC2(c3ccc(F)cc3)Nc3ccccc3N12 (stereo not drawn) | – | > 100 µM | > 100 µM | > 100 µM | > 100 µM | > 100 µM | > 100 µM | > 100 µM | > 100 µM | > 100 µM | – | – | – | – | – | – | – | –
8 | O=C(Cn1ccnc1[N+](=O)[O-])N(CCO)CCO | > 79 µM | > 1250 µM | > 1250 µM | > 250 µM | > 1250 µM | > 1250 µM | > 1250 µM | > 828 µM | > 250 µM | > 58 µM | – | > 1250 µM | – | > 1250 µM | > 1250 µM | > 1250 µM | > 312 µM | 22.3 µM
9 | Cc1c(Cl)ccc2c1NC(=O)C2(O)CC(=O)c1ccc(Cl)cc1Cl (stereo not drawn) | 0.826 µM | > 50 µM | 48.9 µM | > 50 µM | > 50 µM | > 50 µM | > 50 µM | > 50 µM | > 50 µM | > 50 µM | – | – | – | – | – | – | – | –
10 | CC(=O)O[C@]1(C(C)=O)CC[C@H]2[C@@H]3C[C@H](C)C4=CC(=O)C=C[C@]4(C)[C@@]3(F)[C@@H](O)C[C@@]21C | > 100 µM | > 100 µM | > 100 µM | > 100 µM | > 100 µM | – | > 100 µM | > 100 µM | > 100 µM | > 100 µM | – | – | – | – | – | – | – | –
11 | CS(=O)(=O)C1S(=O)(=O)OCCOS1(=O)=O | > 100 µM | > 100 µM | > 100 µM | > 100 µM | > 100 µM | > 100 µM | > 100 µM | > 100 µM | > 100 µM | > 100 µM | – | – | – | – | – | – | – | –
12 | COc1ccc(CNc2cc(OC)cc(OC)c2)cc1 | – | > 100 µM | > 100 µM | > 100 µM | > 100 µM | > 100 µM | > 100 µM | > 100 µM | > 100 µM | > 100 µM | – | – | – | – | > 70.1 µM | – | – | –
13 | N#C/C(=C\c1ccc(CP(=O)(O)O)cc1)C(N)=O | – | > 100 µM | – | > 100 µM | > 100 µM | > 100 µM | > 100 µM | > 100 µM | > 100 µM | > 100 µM | – | – | – | – | – | – | – | –
14 | Cc1c(Cl)cccc1NC(=O)CC1Sc2ccccc2NC1=O (stereo not drawn) | 56.7 µM | > 100 µM | 28 µM and 41.6 µM | 52.7 µM and 34.9 µM | 70 µM and > 100 µM | 65.6 µM and > 100 µM | 64.7 µM and 79.7 µM | 31.2 µM and 41.9 µM | 42.3 µM and 31.1 µM | 68.9 µM and 50.2 µM | – | – | – | – | – | – | – | –
15 | COC1/C=C/O[C@@]2(C)Oc3c(C)c(O)c4c(O)c(cc(O)c4c3C2=O)NC(=O)/C(C)=C\C=C\[C@H](C)C(O)[C@@H](C)[C@@H](O)[C@@H](C)[C@H](OC(C)=O)[C@@H]1C (stereo partly drawn) | 20.6 µM and 42.7 µM | 20.6 µM | 29.9 µM and 25.7 µM | 29.2 µM and 49.2 µM | 33.8 µM | 24.6 µM and 33.9 µM | 11.2 µM and 20.5 µM | 15.1 µM and 22.9 µM | 32.8 µM and 237 µM | 29.3 µM | 3.92 µM | 14 µM | 15.8 µM | – | 11.9 µM | 2.72 µM | 2.6 µM and 8.56 µM | 18.8 µM
16 | O=C(O)CSc1n[nH]c(/C=C/c2ccccc2)n1 | > 100 µM | > 100 µM | > 100 µM | > 100 µM | > 100 µM | > 100 µM | > 100 µM | > 100 µM | > 100 µM | > 100 µM | – | – | – | – | – | – | – | –
17 | Cc1c(/C=C2\CC/C(=C\c3[nH]c(C(=O)OC(C)(C)C)c(C)c3C)C2=O)[nH]c(C(=O)OC(C)(C)C)c1C | > 100 µM | > 100 µM | > 100 µM | > 100 µM | > 100 µM | > 100 µM | > 100 µM | > 100 µM | > 100 µM | > 100 µM | – | – | – | – | – | – | – | –
